Measured values published in PubChem BioAssay (NCI).
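The compound was tested at five concentrations on cells cultured in 96-well plates, with a 48-hour exposure period. Abbreviation: GI50, concentration required for 50% inhibition of growth. The concentration for full growth arrest is given as TGI.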

Tests used:
Test in all cases: NCI tumour cell line growth inhibition, 48 h
CCRF-CEM leukemia = tested on: CCRF-CEM leukemia
MOLT-4 leukemia = tested on: MOLT-4 leukemia
MCF7 breast = tested on: MCF7 breast
K-562 leukemia = tested on: K-562 leukemia
OVCAR-5 ovarian = tested on: OVCAR-5 ovarian
A549 NSCLC = tested on: A549 NSCLC
A498 renal = tested on: A498 renal
TK-10 renal = tested on: TK-10 renal
M14 melanoma = tested on: M14 melanoma
NCI-H460 lung = tested on: NCI-H460 lung

Row | Compound | GI50 (CCRF-CEM leukemia) [µM] | TGI (CCRF-CEM leukemia) [µM] | GI50 (MOLT-4 leukemia) [µM] | TGI (MOLT-4 leukemia) [µM] | GI50 (MCF7 breast) [µM] | TGI (MCF7 breast) [µM] | GI50 (K-562 leukemia) [µM] | TGI (K-562 leukemia) [µM] | GI50 (OVCAR-5 ovarian) [µM] | TGI (OVCAR-5 ovarian) [µM] | GI50 (A549 NSCLC) [µM] | TGI (A549 NSCLC) [µM] | GI50 (A498 renal) [µM] | TGI (A498 renal) [µM] | GI50 (TK-10 renal) [µM] | TGI (TK-10 renal) [µM] | GI50 (M14 melanoma) [µM] | TGI (M14 melanoma) [µM] | GI50 (NCI-H460 lung) [µM] | TGI (NCI-H460 lung) [µM]
1 | CCN(CC)CCCC(C)Nc1c(C)cnc2cc(Cl)c(C)cc12 (stereo not given) | 8.66 | 34.8 | 0.845 | 8.27 | 16.2 | 35.3 | 1.26 | 8.36 | 5.56 | 18 | 15.1 | 30 | 16.6 | 31.4 | 13.9 | 28.4 | 1.76 | 3.19 | 14.1 | 32.3
2 | COc1cc(C2=NN(C(C)=O)C(c3ccc(OC(C)=O)cc3OC(C)=O)O2)c(OC(C)=O)c2ccccc12 (stereo not given) | 0.338 | 8.03 | 0.44 | 8.5 | 2.73 | 16.1 | 0.872 | > 91.2 | 5.64 | > 66.8 | 1.57 | 28.4 | 1.59 | 11.6 | 1.31 | 35.1 | 0.582 | 7.15 | 1.15 | > 33.4
3 | Cc1ccc(/C(=C/C=C(C#N)C#N)Sc2ccc(Cl)cc2)cc1 | 2.41 | 17.4 | 1.85 | 14.3 | 5.24 | > 100 | 3.34 | 18.4 | 11.4 | 25.5 | 12.4 | 28 | 19.4 | 34.8 | 2.12 | 7.31 | 5.44 | 17.7 | 9.24 | 29.7
